Test results reported in ChEMBL document CHEMBL3351249, “Potent cholesteryl ester transfer protein inhibitors of reduced lipophilicity: 1,1'-spiro-substituted hexahydrofuroquinoline derivatives” (J Med Chem, 2014).

Columns and labels:
[1] = Terminal elimination half life in healthy human administered as single oral dose; type: ADME, organism-based; conditions: in vivo, read-out: beta t1/2 (converted)
[2] = biological target: T1, Cholesteryl ester transfer protein (Homo sapiens, UniProt P11597); test: Inhibition of human recombinant CETP by fluorescence transfer assay
T1 sequence (P11597 whole entry): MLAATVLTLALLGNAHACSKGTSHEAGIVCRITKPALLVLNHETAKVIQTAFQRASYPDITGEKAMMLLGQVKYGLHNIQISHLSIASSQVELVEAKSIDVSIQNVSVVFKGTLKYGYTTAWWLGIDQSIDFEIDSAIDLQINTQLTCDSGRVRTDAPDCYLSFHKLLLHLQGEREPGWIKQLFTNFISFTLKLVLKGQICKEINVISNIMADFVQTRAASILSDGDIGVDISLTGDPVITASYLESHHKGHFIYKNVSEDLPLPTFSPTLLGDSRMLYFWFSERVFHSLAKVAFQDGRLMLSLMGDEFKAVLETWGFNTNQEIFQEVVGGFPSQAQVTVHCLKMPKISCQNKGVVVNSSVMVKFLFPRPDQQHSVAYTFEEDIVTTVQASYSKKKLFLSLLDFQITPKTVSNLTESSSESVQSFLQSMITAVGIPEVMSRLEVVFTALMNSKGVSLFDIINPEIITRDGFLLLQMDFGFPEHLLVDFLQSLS

SMILES	half-life [1] [h]	IC50 [2] [nM]
Cc1cc(C)c2c(c1)[C@@H](N(Cc1cc(C(F)(F)F)cc(C(F)(F)F)c1)c1nnn(C)n1)CCCN2C[C@H]1CC[C@H](C(=O)O)CC1 [EVACETRAPIB]	44	
CC(C)c1nc2c(c3c1[C@@H](c1ccc(C(F)(F)F)cn1)OC31CCCC1)[C@@H](O)CC(C)(C)C2		96
CC(C)c1nc2c(c3c1[C@H](c1ccc(C(F)(F)F)cc1)OC31CCOCC1)[C@H](O)CC(C)(C)C2		576
CC(C)c1nc2c(c3c1[C@@H](c1ccc(C(F)(F)F)cc1)OC31CCCC1)[C@@H](O)CC(C)(C)C2		51
CCOC(=O)N1c2ccc(C(F)(F)F)cc2[C@@H](N(Cc2cc(C(F)(F)F)cc(C(F)(F)F)c2)C(=O)OC)C[C@H]1CC [TORCETRAPIB]	221	
CC(C)c1nc2c(c3c1[C@@H](c1ccccc1)OC31CCCC1)[C@@H](O)CC(C)(C)C2		4050
